Values quoted from earlier work as cited in patent publication US9163134B2, “Highly functional additive for polymerization and method for preparing vinyl chloride seeds using the same” (LG CHEM, LTD., priority 2011, dated 2015).
Converted amounts (≈) assume the structure as drawn.

Structure (SMILES)	Solubility in water	Solubility in water (mg/L)
CCCCCCCCCCO [C10H21—OH]	0.037 mg/mL (≈ 0.234 mM)	
CCCCCCCCO [C8H17—OH]	0.54 mg/mL (≈ 4.15 mM)	
CCCCCCO [C6H13—OH]	6.26 mg/mL (≈ 61.3 mM)	
CCO [C2H5—OH]		∞
